According to patent publication US7645882B2, “Inhibitor of protein modification products formation” (priority 2003, dated 2010):

Test system: pentosidine
Assay: Pentosidine production inhibiting effect with BSA and arabinose
Format: biochemical
Details: BSA and arabinose instead of plasma
Method: Fresh heparinized plasma samples were obtained after informed consent from hemodialysis patients prior to the dialysis session, and filtrated and sterilized. To the plasma (450 μL), there was added the solution of TM-2002 in dimethylsurphoxide (50 μL) (final concentration: 0.8, 2.0, 5.0 mM) incubated at 37° C. for one week. Then, the amount of pentosidine was measured.
Measurement of the amount of pentosidine was made as follows: to each incubated sample (50 μL) was added an equal volume of 10% trichloroacetic acid, followed by centrifugation at 5000 g for 5 minutes; after removal of the supernatant, the pellet was washed by 5% trichloroacetic acid (300 μL); the pellet was dried under reduced pressure and then subjected to hydrolysis in 6N HCl solution (100 μL) at 110° C. under nitrogen atmosphere for 16 hours; to the hydrolysate, 5N NaOH (100 μL) and 0.5 M phosphate buffer (pH 7.4) (200 μL) were added, followed by filtration through a porefilter with a pore size of 0.5 μm and dilution with PBS. The concentration of free pentosidine was determined by reversed-phase HPLC using a fluorescence detector (Miyata, T. et al.: Proc. Natl. Acad. Sci. USA, Vol. 93, p. 2353-2358, 1996). The effluent was monitored at 335/385 nm of excitation/emission wavelength. Synthetic pentosidine was used as the standard. The detection limit of pentosidine was 0.1 pmol/mg protein.
The plasma from patients was substituted to BSA and arabinose, and the pentosidine production inhibiting effect of another compounds (I) or (II) was measured in the same manner as [Test Examination 1]. Therein, “-” means that the examination was not carried out.

Compound	Pentosidine production rate in 5 mM of medicament (%)
CC1=NN(c2ccc(S(N)(=O)=O)cc2)C(=O)C1=Cc1ccc(O)cc1 [compound 49, 4-[4-(4-hydroxy-benzylidene)-3-methyl-5-oxo-4,5-dihydro-pyrazol-1-yl]-benzenesulfonamide]	7.09%
CCOC(=O)c1ccc(N2N=C(C(F)(F)F)/C(=C/c3cccs3)C2=O)cc1 [compound 50, 4-(5-oxo-4-thiophene-2-yl-methylene-3-trifluoromethyl-4,5-dihydro-pyrazol-1-yl)-benzoic acid-ethyl ester]	63.17%
CN(C)c1ccc(/C=C2\C(=O)N(c3ccc(S(N)(=O)=O)cc3)N=C2C(F)(F)F)cc1 [compound 51, 4-[4-(4-dimethylamino-benzylidene)-5-oxo-3-trifluoromethyl-4,5-dihydro-pyrazole-1-yl]-benzenesulfonamide]	41.68%
O=C1/C(=C\c2ccc(O)cc2)C(C(F)(F)F)=NN1c1ccccc1 [compound 53, 4-(4-hydroxy-benzylidene)-2-phenyl-5-trifluoromethyl-2,4-dihydro-pyrazol-3-one]	66.76%
CC1=NN(c2ccc(C)c(C)c2)C(=O)/C1=C\c1ccc(O)cc1O [compound 54, 4-(2,4-dihydroxy-benzylidene)-2-(3,4-dimethyl-phenyl)-5-methyl-2,4-dihydro-pyrazol-3-one]	73.48%
COc1ccc(/C=C2/C(=O)N(c3ccccc3)N=C2C)c(OC)c1O [compound 59, 4-(3-hydroxy-2,4-dimethoxy-benzylidene)-5-methyl-2-phenyl-2,4-dihydro-pyrazol-3-one]	5.3%
COc1cc(/C=C2/C(=O)N(c3ccc(C(=O)OC(C)C)cc3)NC2C)ccc1O (stereo not drawn) [compound 60, 4-[4-(4-hydroxy-3-methoxy-benzylidene)-3-methyl-5-oxo-pyrazolidin-1-yl]-benzoic acid-isopropyl ester]	9.02%
COc1cc(/C=C2/C(=O)N(c3ccc(Cl)c(C(=O)O)c3)N=C2C)c(Cl)cc1O [compound 61, 2-chloro-5-[4-(2-chloro-4-hydroxy-5-methoxy-benzylidene)-3-methyl-5-oxo-4,5-dihydro-pyrazol-1-yl]-benzoic acid]	46.25%
CC1=NN(c2ccccc2)C(=O)/C1=C/N(C)C [compound 65, 4-dimethylaminomethylene-5-methyl-2-phenyl-2,4-dihydro-pyrazol-3-one]	62.43%
CC1=NN(c2ccccc2)C(=O)/C1=C/c1c(C)nn(-c2ccccc2)c1O [compound 66, 4-(5-hydroxy-3-methyl-1-phenyl-1H-pyrazol-4-yl-methylene)-5-methyl-2-phenyl-2,4-dihydro-pyrazol-3-one]	15.17%
CC1=NN(c2ccccc2)C(=O)/C1=C/c1ccc(Cl)cc1 [compound 67, 4-(4-chloro-benzylidene)-5-methyl-2-phenyl-2,4-dihydro-pyrazol-3-one]	9.09%
CC1=NN(c2ccccc2)C(=O)/C1=C/c1ccc(O)cc1 [compound 70, 4-(4-hydroxy-benzylidene)-5-methyl-2-phenyl-2,4-dihydro-pyrazol-3-one]	0.04%
CC1=NN(c2cccc(Cl)c2)C(=O)/C1=C/c1ccc(O)cc1 [compound 71, 2-(3-chloro-phenyl)-4-(4-hydroxy-benzylidene)-5-methyl-2,4-dihydropyrazol-3-one]	4.63%
CC1=NN(c2ccccc2)C(=O)/C1=C/c1ccc(OCc2ccccc2)cc1 [compound 72, 4-(4-benzyloxy-benzylidene)-5-methyl-2-phenyl-2,4-dihydropyrazol-3-one]	7.63%
CC1=NN(c2cccc(Cl)c2)C(=O)/C1=N/O [compound 73, 2-(3-chloro-phenyl)-5-methyl-2H-pyrazol-3,4-dione 4-oxym]	66.42%
